In patent US11691949B2, “Quinoline sulfonamide compounds and their use as antibacterial agents” (OTAGO INNOVATION LIMITED, priority 2017, dated 2023):
In brackets after ≈: the same amount, converted by molar mass. Where two headings read alike, the source gives them in different places.

Legend:
Format in all cases: cell-based
S. aureus ATCC 6538 [1] = assay: MBC by Miles-Misra drop-plate method, S. aureus; settings: Staphylococcus aureus
Experimental: (§1) Antibacterial susceptibility testing was performed in triplicate (biological) by measuring minimum inhibitory concentrations (MICs) by broth microdilution in 96-well flat bottom microtiter plates (ThermoFisher Scientific, New Zealand). S. uberis ATCC 19436, S. aureus ATCC 6538, or E. coli ATCC 10596 cells grown overnight were diluted to an OD600 of approximately 0.025, so that the final concentration of cells in the MIC assay was approximately 5×10^5 cfu/mL in media as follows: S. uberis; Todd Hewitt Broth (THB), S. aureus; Tryptic Soy Broth (TSB) and Cation Adjusted Muller Hinton Broth (CAMHB), and E. coli; Lysogeny Borth (LB) and CAMHB, before being dispensed into microtiter wells. As required additional sterile Zinc Sulphate (Heptahydrate) was supplemented into the media, so the final concentration was 50 μM. Test compounds were added to starting wells and two-fold serial dilutions were undertaken to generate a range of inhibitor concentrations at a final volume of 200 μl. Media and test compound-free (untreated) controls were included in each microtiter plate in triplicate. After 24 h incubation at 37° C. and 200 rpm, the OD600 of wells were read using a Varioskan Flash plate reader (ThermoFisher Scientific, New Zealand). The MIC was reported as the lowest concentration of the test compound for which no growth occurred, as determined by OD600 readings. The minimum bactericidal concentration (MBC) was determined using the Miles-Misra drop-plate method to measure the viability of cells in response to test compound challenge.

E. coli ATCC 10536 = assay: MBC by Miles-Misra drop-plate method, E. coli; settings: Escherichia coli
Experimental: as §1

E. coli ATCC 10596 = assay: MIC by broth microdilution, E. coli; settings: Escherichia coli
How it was run: (§2)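 Overnight cultures diluted to ~5×10^5 cfu/mL final; S. aureus in TSB and CAMHB, E. coli in LB and CAMHB, zinc sulphate to 50 μM final as required; two-fold serial dilutions. MIC = lowest concentration with no growth by OD600 after 24 h, 37° C, 200 rpm. MBC by Miles-Misra drop-plate viability count.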

S. uberis ATCC 19436 [2] = assay: MIC by broth microdilution, S. uberis; settings: Streptococcus uberis
How it was run: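 Streptococcus uberis ATCC 19436 was tested in Todd Hewitt Broth by broth microdilution in 96-well flat bottom plates, in biological triplicate. Overnight cells were diluted to OD600 of approximately 0.025, giving about 5×10^5 cfu/mL in the wells. Compounds were serially diluted two-fold to 200 μl, incubated 24 h at 37° C. and 200 rpm, and the MIC was taken from OD600.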

S. uberis ATCC 19436 [3] = assay: MBC by Miles-Misra drop-plate method, S. uberis; settings: Streptococcus uberis
Experimental: as §1

S. aureus ATCC 6538 [4] = assay: MIC by broth microdilution, S. aureus; settings: Staphylococcus aureus
How it was run: as §2

[5] = ATCC6538, No Zinc, read-out: S. aureus ATCC 6538 MBC
[6] = ATCC6538, Zinc (50 μM), read-out: S. aureus ATCC 6538 MBC
[7] = ATCC10536, No Zinc, read-out: E. coli ATCC 10536 MBC
[8] = ATCC10536, Zinc (50 μM), read-out: E. coli ATCC 10536 MBC
[9] = ATCC 10536 / ATCC 10596, No Zinc, read-out: E. coli ATCC 10536 MIC
[10] = ATCC 10536 / ATCC 10596, Zinc (50 μM), read-out: E. coli ATCC 10536 MIC
[11] = ATCC19436, No Zinc, read-out: S. uberis ATCC 19436 MIC
[12] = ATCC19436, Zinc (50 μM), read-out: S. uberis ATCC 19436 MIC
[13] = ATCC19436, No Zinc, read-out: S. uberis ATCC 19436 MBC
[14] = ATCC19436, Zinc (50 μM), read-out: S. uberis ATCC 19436 MBC
[15] = ATCC6538, No Zinc, read-out: S. aureus ATCC 6538 MIC
[16] = ATCC6538, Zinc (50 μM), read-out: S. aureus ATCC 6538 MIC
[17] = ATCC6538, read-out: S. aureus ATCC 6538 MBC, No Zinc
[18] = ATCC6538, read-out: S. aureus ATCC 6538 MBC, Zinc (50 μM)
[19] = ATCC10536, read-out: E. coli ATCC 10536 MBC, No Zinc
[20] = ATCC10536, read-out: E. coli ATCC 10536 MBC, Zinc (50 μM)
[21] = ATCC 10536 / ATCC 10596, read-out: E. coli ATCC 10536 MIC, No Zinc
[22] = ATCC 10536 / ATCC 10596, read-out: E. coli ATCC 10536 MIC, Zinc (50 μM)
[23] = ATCC19436, read-out: S. uberis ATCC 19436 MIC, No Zinc
[24] = ATCC19436, read-out: S. uberis ATCC 19436 MIC, Zinc (50 μM)
[25] = ATCC19436, read-out: S. uberis ATCC 19436 MBC, No Zinc
[26] = ATCC19436, read-out: S. uberis ATCC 19436 MBC, Zinc (50 μM)
[27] = ATCC6538, read-out: S. aureus ATCC 6538 MIC, No Zinc
[28] = ATCC6538, read-out: S. aureus ATCC 6538 MIC, Zinc (50 μM)

For `O=S(=O)(Nc1cccc2ccc(CNCCc3ccccn3)nc12)c1ccc(C(F)(F)F)cc1` [ZDR095, N-(2-(((2-(Pyridin-2-yl)ethyl)amino)methyl)quinolin-8-yl)-4-(trifluoromethyl)benzenesulfonamide], the MBC (S. aureus ATCC 6538 [1]; [5]) was over 128 µg/mL, the MBC (S. aureus ATCC 6538 [1]; [6]) was over 256 µg/mL and the MBC (E. coli ATCC 10536; [7]) was 128 µg/mL (≈ 263 µM). For the same compound, the MBC (E. coli ATCC 10536; [8]) was 256 µg/mL (≈ 526 µM), the MIC (E. coli ATCC 10596; [9]) was 128 µg/mL (≈ 263 µM) and the MIC (E. coli ATCC 10596; [10]) was over 256 µg/mL. It also gave an MIC (S. uberis ATCC 19436 [2]; [11]) of over 256 µg/mL, an MIC (S. uberis ATCC 19436 [2]; [12]) of 0.125 µg/mL (≈ 0.257 µM) and an MBC (S. uberis ATCC 19436 [3]; [13]) of over 256 µg/mL. The MBC (S. uberis ATCC 19436 [3]; [14]) was 1 µg/mL (≈ 2.06 µM), the MIC (S. aureus ATCC 6538 [4]; [15]) was 64 µg/mL (≈ 132 µM) and the MIC (S. aureus ATCC 6538 [4]; [16]) was 8 µg/mL (≈ 16.4 µM).

Compound `O=S(=O)(Nc1cccc2ccc(CNC(CO)(CO)CO)nc12)c1ccc(C(F)(F)F)cc1` [ZDR102, N-(2-(((1,3-Dihydroxy-2-(hydroxymethyl)propan-2-yl)amino)methyl)quinolin-8-yl)-4-(trifluoromethyl)benzenesulfonamide] has an MBC (S. aureus ATCC 6538 [1]; [5]) of 128 µg/mL (≈ 264 µM), an MBC (S. aureus ATCC 6538 [1]; [6]) of 32 µg/mL (≈ 65.9 µM) and an MBC (E. coli ATCC 10536; [7]) of 256 µg/mL (≈ 527 µM). For the same compound, the MBC (E. coli ATCC 10536; [8]) was over 256 µg/mL, the MIC (E. coli ATCC 10596; [9]) was 256 µg/mL (≈ 527 µM) and the MIC (E. coli ATCC 10596; [10]) was 64 µg/mL (≈ 132 µM). The MIC (S. uberis ATCC 19436 [2]; [11]) was 32 µg/mL (≈ 65.9 µM), the MIC (S. uberis ATCC 19436 [2]; [12]) was 16 µg/mL (≈ 33 µM) and the MBC (S. uberis ATCC 19436 [3]; [13]) was 32 µg/mL (≈ 65.9 µM). The MBC (S. uberis ATCC 19436 [3]; [14]) was 16 µg/mL (≈ 33 µM), the MIC (S. aureus ATCC 6538 [4]; [15]) was 32 µg/mL (≈ 65.9 µM) and the MIC (S. aureus ATCC 6538 [4]; [16]) was 16 µg/mL (≈ 33 µM).

`O=S(=O)(Nc1cccc2ccc(CNCCN3CCCCC3)nc12)c1ccc(C(F)(F)F)cc1` [ZDR111, N-(2-(((2-(Piperidin-1-yl)ethyl)amino)methyl)quinolin-8-yl)-4-(trifluoromethyl)benzenesulfonamide] was tested, and the MBC (S. aureus ATCC 6538 [1]; [5]) was 16 µg/mL (≈ 32.5 µM), the MBC (S. aureus ATCC 6538 [1]; [6]) was 16 µg/mL (≈ 32.5 µM) and the MBC (E. coli ATCC 10536; [7]) was over 256 µg/mL. It also gave an MBC (E. coli ATCC 10536; [8]) of over 256 µg/mL, an MIC (E. coli ATCC 10596; [9]) of 64 µg/mL (≈ 130 µM) and an MIC (E. coli ATCC 10596; [10]) of over 256 µg/mL. It also gave an MIC (S. uberis ATCC 19436 [2]; [11]) of 8 µg/mL (≈ 16.2 µM), an MIC (S. uberis ATCC 19436 [2]; [12]) of 0.5 µg/mL (≈ 1.02 µM) and an MBC (S. uberis ATCC 19436 [3]; [13]) of 8 µg/mL (≈ 16.2 µM). For the same compound, the MBC (S. uberis ATCC 19436 [3]; [14]) was 1 µg/mL (≈ 2.03 µM), the MIC (S. aureus ATCC 6538 [4]; [15]) was 16 µg/mL (≈ 32.5 µM) and the MIC (S. aureus ATCC 6538 [4]; [16]) was 16 µg/mL (≈ 32.5 µM).

`O=S(=O)(Nc1cccc2ccc(CNCCN3CCOCC3)nc12)c1ccc(C(F)(F)F)cc1` [ZDR112, N-(2-(((2-Morpholinoethyl)amino)methyl)quinolin-8-yl)-4-(trifluoromethyl)benzenesulfonamide] gave an MBC (S. aureus ATCC 6538 [1]; [5]) of over 256 µg/mL, an MBC (S. aureus ATCC 6538 [1]; [6]) of 256 µg/mL (≈ 518 µM) and an MBC (E. coli ATCC 10536; [7]) of 128 µg/mL (≈ 259 µM). It also gave an MBC (E. coli ATCC 10536; [8]) of over 256 µg/mL, an MIC (E. coli ATCC 10596; [9]) of over 256 µg/mL and an MIC (E. coli ATCC 10596; [10]) of over 256 µg/mL. For the same compound, the MIC (S. uberis ATCC 19436 [2]; [11]) was 64 µg/mL (≈ 129 µM), the MIC (S. uberis ATCC 19436 [2]; [12]) was 1 µg/mL (≈ 2.02 µM) and the MBC (S. uberis ATCC 19436 [3]; [13]) was 64 µg/mL (≈ 129 µM). It also gave an MBC (S. uberis ATCC 19436 [3]; [14]) of 2 µg/mL (≈ 4.04 µM), an MIC (S. aureus ATCC 6538 [4]; [15]) of 16 µg/mL (≈ 32.4 µM) and an MIC (S. aureus ATCC 6538 [4]; [16]) of 32 µg/mL (≈ 64.7 µM).

In the case of `CN1CCN(CCNCc2ccc3cccc(NS(=O)(=O)c4ccc(C(F)(F)F)cc4)c3n2)CC1` [ZDR114, N-(2-(((2-(4-Methylpiperazin-1-yl)ethyl)amino)methyl)quinolin-8-yl)-4-(trifluoromethyl)benzenesulfonamide di-trifluoroacetate], the MBC (S. aureus ATCC 6538 [1]; [17]) is reported as 128 µg/mL (≈ 252 µM), the MBC (S. aureus ATCC 6538 [1]; [18]) is reported as 64 µg/mL (≈ 126 µM) and the MBC (E. coli ATCC 10536; [19]) is reported as over 256 µg/mL. It also gave an MBC (E. coli ATCC 10536; [20]) of 64 µg/mL (≈ 126 µM), an MIC (E. coli ATCC 10596; [21]) of 64 µg/mL (≈ 126 µM) and an MIC (E. coli ATCC 10596; [22]) of 64 µg/mL (≈ 126 µM). For the same compound, the MIC (S. uberis ATCC 19436 [2]; [23]) was 32 µg/mL (≈ 63 µM), the MIC (S. uberis ATCC 19436 [2]; [24]) was 4 µg/mL (≈ 7.88 µM) and the MBC (S. uberis ATCC 19436 [3]; [25]) was 32 µg/mL (≈ 63 µM). It also gave an MBC (S. uberis ATCC 19436 [3]; [26]) of 4 µg/mL (≈ 7.88 µM), an MIC (S. aureus ATCC 6538 [4]; [27]) of 64 µg/mL (≈ 126 µM) and an MIC (S. aureus ATCC 6538 [4]; [28]) of 64 µg/mL (≈ 126 µM).

With `O=S(=O)(Nc1cccc2ccc(CNCCCN3CCCCC3)nc12)c1ccc(C(F)(F)F)cc1` [ZDR115, N-(2-(((3-(Piperidin-1-yl)propyl)amino)methyl)quinolin-8-yl)-4-(trifluoromethyl)benzenesulfonamide di-trifluoroacetate] the MBC (S. aureus ATCC 6538 [1]; [17]) was 16 µg/mL (≈ 31.6 µM), the MBC (S. aureus ATCC 6538 [1]; [18]) was 16 µg/mL (≈ 31.6 µM) and the MBC (E. coli ATCC 10536; [19]) was 16 µg/mL (≈ 31.6 µM). The MBC (E. coli ATCC 10536; [20]) was 16 µg/mL (≈ 31.6 µM), the MIC (E. coli ATCC 10596; [21]) was 16 µg/mL (≈ 31.6 µM) and the MIC (E. coli ATCC 10596; [22]) was 16 µg/mL (≈ 31.6 µM). For the same compound, the MIC (S. uberis ATCC 19436 [2]; [23]) was 4 µg/mL (≈ 7.9 µM), the MIC (S. uberis ATCC 19436 [2]; [24]) was 2 µg/mL (≈ 3.95 µM) and the MBC (S. uberis ATCC 19436 [3]; [25]) was 8 µg/mL (≈ 15.8 µM). For the same compound, the MBC (S. uberis ATCC 19436 [3]; [26]) was 4 µg/mL (≈ 7.9 µM), the MIC (S. aureus ATCC 6538 [4]; [27]) was 16 µg/mL (≈ 31.6 µM) and the MIC (S. aureus ATCC 6538 [4]; [28]) was 16 µg/mL (≈ 31.6 µM).
